# In patent publication US20220289708A1, “SUBSTITUTED N-PHENYL URACILS, SALTS THEREOF AND THEIR USE AS HERBICIDAL AGENTS” (Bayer Aktiengesellschaft, priority 2019, published 2022):
# What was measured:
# Type in all cases: in vivo
# Avena fatua = assay: Pre-emergence herbicidal action
# How it was run: (§1)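 Compounds formulated as WP or EC were sprayed onto the soil surface over freshly sown seeds as aqueous suspension/emulsion with 0.5% additive, at 600 l/ha water, at 80 g/ha or less. Greenhouse-grown plants were visually scored after about 3 weeks as % activity versus untreated controls (100% = plants dead).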
# Matricaria inodora [1] = assay: Pre-emergence herbicidal action; details: application rate 20 g/ha
# How it was run: as §1
# Polygonum convolvulus [2] = assay: Pre-emergence herbicidal action; details: application rate 20 g/ha
# How it was run: as §1
# Viola tricolor [3] = assay: Pre-emergence herbicidal action; details: application rate 20 g/ha
# How it was run: as §1
# Setaria viridis [4] = assay: Pre-emergence herbicidal action; details: application rate 20 g/ha
# How it was run: as §1
# Echinochloa crus-galli [5] = assay: Pre-emergence herbicidal action
# How it was run: as §1
# Lolium rigidum = assay: Pre-emergence herbicidal action; details: application rate 80 g/ha
# How it was run: as §1
# Veronica persica [6] = assay: Pre-emergence herbicidal action; details: application rate 20 g/ha
# How it was run: as §1
# Amaranthus retroflexus [7] = assay: Pre-emergence herbicidal action; details: application rate 20 g/ha
# How it was run: as §1
# Alopecurus myosuroides [8] = assay: Pre-emergence herbicidal action
# How it was run: as §1
# Abutilon theophrasti [9] = assay: Pre-emergence herbicidal action; details: application rate 20 g/ha
# How it was run: as §1
# Digitaria sanguinalis [10] = assay: Pre-emergence herbicidal action; details: application rate 20 g/ha
# How it was run: as §1
# Pharbitis purpurea [11] = assay: Pre-emergence herbicidal action
# How it was run: as §1
# Echinochloa crus-galli [12] = assay: Post-emergence herbicidal action; details: application rate 5 g/ha, rated visually after about 3 weeks vs untreated controls
# How it was run: (§2)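 Percent activity, judged by eye about 3 weeks after treatment relative to untreated plants, ranges from 0% (as control) to 100% (plants dead). Foliar application at 20 g/ha and less was made at the one-leaf stage using a 600 l/ha aqueous spray containing 0.5% additive.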
# Veronica persica [13] = assay: Post-emergence herbicidal action; details: application rate 5 g/ha
# How it was run: as §2
# Amaranthus retroflexus [14] = assay: Post-emergence herbicidal action; details: application rate 5 g/ha, rated visually after about 3 weeks vs untreated controls
# How it was run: as §2
# Abutilon theophrasti [15] = assay: Post-emergence herbicidal action; details: application rate 5 g/ha, rated visually after about 3 weeks vs untreated controls
# How it was run: as §2
# Digitaria sanguinalis [16] = assay: Post-emergence herbicidal action; details: rated visually after about 3 weeks vs untreated controls
# How it was run: as §2
# Pharbitis purpurea [17] = assay: Post-emergence herbicidal action; details: application rate 5 g/ha, rated visually after about 3 weeks vs untreated controls
# How it was run: as §2
# Oryza sativa = assay: Post-emergence crop plant compatibility; details: application rate 5 g/ha
# How it was run: (§3)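 Greenhouse crop plants in sandy loam sprayed at one-leaf stage (2-3 weeks after sowing) with WP or EC formulations plus 0.5% additive, 600 l/ha water, at 5 g/ha or 20 g/ha. Damage scored visually after about 3 weeks as % versus untreated controls (100% = plants dead).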
# Triticum aestivum [18] = assay: Post-emergence crop plant compatibility; details: application rate 5 g/ha
# How it was run: as §3
# Zea mays = assay: Pre-emergence crop plant compatibility; details: application rate 20 g/ha
# Text: (§4) B. Pre-Emergence Herbicidal Action and Crop Plant Compatibility
# (§5) Seeds of monocotyledonous and dicotyledonous weed plants and crop plants were placed in plastic or organic planting pots and covered with soil. The compounds of the invention, formulated in the form of wettable powders (WP) or as emulsion concentrates (EC), were then applied to the surface of the covering soil as aqueous suspension or emulsion with addition of 0.5% additive at a water application rate equivalent to 600 l/ha (converted). After the treatment, the pots were placed in a greenhouse and kept under good growth conditions for the test plants. After about 3 weeks, the effect of the preparations was scored visually in comparison with untreated controls as percentages. For example, 100% activity=the plants have died, 0% activity=like control plants.
# (§6) Tables B14 to B16 below show the crop plant compatibilities of selected compounds of the general formula (I) according to Tables I.1 to I.36 at an application rate corresponding to 20 g/ha, which were obtained in experiments according to the experimental procedure mentioned above. Here, the observed effects on selected crop plants are stated in comparison to the untreated controls (values in %).
# Triticum aestivum [19] = assay: Pre-emergence crop plant compatibility; details: application rate 20 g/ha
# Text: as §4, §5, §6
# Glycine max = assay: Pre-emergence crop plant compatibility; details: application rate 20 g/ha, observed effect on crop vs untreated controls after about 3 weeks
# Text: as §4, §5, §6
# Matricaria inodora [20] = assay: Post-emergence herbicidal action; details: application rate 5 g/ha, rated visually after about 3 weeks vs untreated controls
# How it was run: as §2
# Polygonum convolvulus [21] = assay: Post-emergence herbicidal action; details: application rate 5 g/ha
# How it was run: as §2
# Viola tricolor [22] = assay: Post-emergence herbicidal action; details: application rate 5 g/ha
# How it was run: as §2
# Setaria viridis [23] = assay: Post-emergence herbicidal action; details: application rate 5 g/ha, rated visually after about 3 weeks vs untreated controls
# How it was run: as §2
# Alopecurus myosuroides [24] = assay: Post-emergence herbicidal action; details: application rate 5 g/ha, rated visually after about 3 weeks vs untreated controls
# How it was run: as §2
Oryza sativa (efficacy in %) (Oryza sativa),Triticum aestivum (efficacy in %) (Triticum aestivum [18]),Triticum aestivum (efficacy in %) (Triticum aestivum [19]),SMILES,Avena fatua (efficacy in %) (Avena fatua; application rate 80 g/ha),Matricaria inodora (efficacy in %) (Matricaria inodora [1]),Polygonum convolvulus (efficacy in %) (Polygonum convolvulus [2]),Viola tricolor (efficacy in %) (Viola tricolor [3]),Setaria viridis (efficacy in %) (Setaria viridis [4]),Lolium rigidum (efficacy in %) (Lolium rigidum),Veronica persica (efficacy in %) (Veronica persica [6]),Amaranthus retroflexus (efficacy in %) (Amaranthus retroflexus [7]),Abutilon theophrasti (efficacy in %) (Abutilon theophrasti [9]),Digitaria sanguinalis (efficacy in %) (Digitaria sanguinalis [10]),Pharbitis purpurea (efficacy in %) (Pharbitis purpurea [11]; application rate 20 g/ha),Echinochloa crus-galli (efficacy in %) (Echinochloa crus-galli [12]),Veronica persica (efficacy in %) (Veronica persica [13]),Amaranthus retroflexus (efficacy in %) (Amaranthus retroflexus [14]),Abutilon theophrasti (efficacy in %) (Abutilon theophrasti [15]),Digitaria sanguinalis (efficacy in %) (Digitaria sanguinalis [16]; application rate 5 g/ha),Pharbitis purpurea (efficacy in %) (Pharbitis purpurea [17]),also measured
20%,20%,10%,Cn1c(C(F)(F)F)cc(=O)n(-c2cc(Oc3cccnc3OCC(=O)OCCOCc3ccccc3)c(Cl)cc2F)c1=O [I.15-6],100%,100%,100%,100%,100%,100%,100%,100%,100%,100%,100%,100%,100%,100%,100%,100%,100%,Echinochloa crus-galli (efficacy in %) (Echinochloa crus-galli [5]; application rate 80 g/ha): 100%; Alopecurus myosuroides (efficacy in %) (Alopecurus myosuroides [8]; application rate 20 g/ha): 90%; Zea mays (efficacy in %) (Zea mays): 0%
0%,0%,10%,COCCOCCOCCOCCOC(=O)COc1ncccc1Oc1cc(-n2c(=O)cc(C(F)(F)F)n(C)c2=O)c(F)cc1Cl [I.15-154],100%,100%,100%,100%,100%,100%,100%,100%,100%,100%,–,–,100%,100%,100%,–,100%,Echinochloa crus-galli (efficacy in %) (Echinochloa crus-galli [5]; application rate 80 g/ha): 100%; Alopecurus myosuroides (efficacy in %) (Alopecurus myosuroides [8]; application rate 80 g/ha): 100%; Pharbitis purpurea (efficacy in %) (Pharbitis purpurea [11]; application rate 80 g/ha): 100%; Digitaria sanguinalis (efficacy in %) (Digitaria sanguinalis [16]; application rate 20 g/ha): 100%; Zea mays (efficacy in %) (Zea mays): 0%
0%,0%,0%,Cn1c(C(F)(F)F)cc(=O)n(-c2cc(Oc3cccnc3OCC(=O)OCC[Si](C)(C)C)c(Cl)cc2F)c1=O [I.15-211],80%,100%,100%,100%,100%,100%,100%,100%,100%,100%,80%,100%,100%,100%,100%,100%,80%,Echinochloa crus-galli (efficacy in %) (Echinochloa crus-galli [5]; application rate 20 g/ha): 80%; Alopecurus myosuroides (efficacy in %) (Alopecurus myosuroides [8]; application rate 80 g/ha): 100%; Zea mays (efficacy in %) (Zea mays): 20%
–,–,20%,CC(C#N)COC(=O)COc1ncccc1Oc1cc(-n2c(=O)cc(C(F)(F)F)n(C)c2=O)c(F)cc1Cl (centres unmarked) [I.15-405],100%,100%,90%,100%,100%,100%,100%,100%,100%,100%,100%,100%,100%,–,–,100%,100%,Echinochloa crus-galli (efficacy in %) (Echinochloa crus-galli [5]; application rate 20 g/ha): 80%; Alopecurus myosuroides (efficacy in %) (Alopecurus myosuroides [8]; application rate 80 g/ha): 100%; Matricaria inodora (efficacy in %) (Matricaria inodora [20]): 80%; Zea mays (efficacy in %) (Zea mays): 0%

# Further lines, the compound ahead of its results:
SMILES,Oryza sativa (efficacy in %) (Oryza sativa),Triticum aestivum (efficacy in %) (Triticum aestivum [18]),Triticum aestivum (efficacy in %) (Triticum aestivum [19]),Avena fatua (efficacy in %) (Avena fatua; application rate 80 g/ha),Matricaria inodora (efficacy in %) (Matricaria inodora [1]),Polygonum convolvulus (efficacy in %) (Polygonum convolvulus [2]),Viola tricolor (efficacy in %) (Viola tricolor [3]),Setaria viridis (efficacy in %) (Setaria viridis [4]),Lolium rigidum (efficacy in %) (Lolium rigidum),Veronica persica (efficacy in %) (Veronica persica [6]),Amaranthus retroflexus (efficacy in %) (Amaranthus retroflexus [7]),Abutilon theophrasti (efficacy in %) (Abutilon theophrasti [9]),Digitaria sanguinalis (efficacy in %) (Digitaria sanguinalis [10]),Pharbitis purpurea (efficacy in %) (Pharbitis purpurea [11]; application rate 20 g/ha),Echinochloa crus-galli (efficacy in %) (Echinochloa crus-galli [12]),Veronica persica (efficacy in %) (Veronica persica [13]),Amaranthus retroflexus (efficacy in %) (Amaranthus retroflexus [14]),Abutilon theophrasti (efficacy in %) (Abutilon theophrasti [15]),Digitaria sanguinalis (efficacy in %) (Digitaria sanguinalis [16]; application rate 5 g/ha),Pharbitis purpurea (efficacy in %) (Pharbitis purpurea [17]),also measured
Cn1c(C(F)(F)F)cc(=O)n(-c2cc(Oc3cccnc3OCC(=O)OCCOC(F)(F)F)c(Cl)cc2F)c1=O [I.15-41],20%,20%,–,90%,100%,100%,100%,100%,100%,100%,100%,100%,100%,100%,100%,100%,100%,100%,100%,100%,Echinochloa crus-galli (efficacy in %) (Echinochloa crus-galli [5]; application rate 80 g/ha): 100%; Alopecurus myosuroides (efficacy in %) (Alopecurus myosuroides [8]; application rate 80 g/ha): 100%; Glycine max (efficacy in %) (Glycine max): 20%
Cn1c(C(F)(F)F)cc(=O)n(-c2cc(Oc3cccnc3OCC(=O)OCC3NC(=O)NC3=O)c(Cl)cc2F)c1=O (centres unmarked) [I.15-280],–,20%,10%,–,100%,100%,100%,100%,100%,100%,100%,100%,100%,90%,80%,100%,100%,100%,100%,100%,Avena fatua (efficacy in %) (Avena fatua; application rate 20 g/ha): 80%; Echinochloa crus-galli (efficacy in %) (Echinochloa crus-galli [5]; application rate 20 g/ha): 90%; Alopecurus myosuroides (efficacy in %) (Alopecurus myosuroides [8]; application rate 20 g/ha): 90%; Matricaria inodora (efficacy in %) (Matricaria inodora [20]): 90%; Polygonum convolvulus (efficacy in %) (Polygonum convolvulus [21]): 100%; Viola tricolor (efficacy in %) (Viola tricolor [22]): 100%; Setaria viridis (efficacy in %) (Setaria viridis [23]): 100%; Alopecurus myosuroides (efficacy in %) (Alopecurus myosuroides [24]): 90%; Glycine max (efficacy in %) (Glycine max): 0%
